# Assay results from publication PMC2435557, “Developing and applying a gene functional association network for anti-angiogenic kinase inhibitor activity assessment in an angiogenesis co-culture model” (BMC Genomics, 2008).
# pEC50: −log10 of the molar value. “Also recorded” adds a separate entry of the source.
# Assays:
# [1] = tested on: HUVEC cord formation in co-culture with NHDF; assay: HUVEC/NHDF cord formation co-culture assay (in vitro angiogenesis, high content imaging); format: cell-based, human; conditions: for pEC50: Homo sapiens, cord area normalized to control group, mean of two to four independent experiments, sigmoidal dose-response fit, read-out: observed EC50 of cord formation inhibition (cord area)
# Description: In vitro HUVEC cord formation co-culture was performed using the AngioKit commercially available from TCScellworks (Buckingham, UK) adapted to a 24-well format. To test HUVEC and NHDF passage dependence effects, the co-culture was done in house adapted to a 96-well format. Briefly, HUVEC cells were co-cultured onto human dermal fibroblast feeder layers in Optimised medium (TCScellworks, Buckingham, UK) for a total of about 12 days. Treatment started the day when the plates were received; usually three to four days after initial plating. Medium with or without growth factors or compounds was replenished every 2 to 3 days. Cells were fixed with 70% cold ethanol at the end of the culture and processed for anti-CD31/Alexa 488 immunofluorescence. To visualize feeder layer fibroblasts, some cultures were stained using a polyclonal antibody against Vimentin (Abcam, Cambridge, Massachusetts) along with an Alexa 568 conjugated secondary antibody to examine the feeder cell integrity. Nuclear staining was performed using Hoechst staining (Invitrogen Molecular Probe, Carlsbad, California).
# Immunofluorescence stained co-culture plates were scanned using ArrayScan VTI (Cellomics, Pittsburgh, Pennsylvania) and the multi-parameter tube formation Bioapplication was used for quantification. Morphological measurements included cord length, width, area, percent connected cord, branching node and segment count, nuclei per cord, angiogenic index (expressed as the percentage of area covered by connected tube), etc. General cytotoxicity was monitored by examination of the nuclear staining of the feed layers.
# [2] = design: method as in PMID 15919970; conditions: cited from earlier work
molecule,measurement,setting,value
O=C(Cc1ccc(-c2cnc3cc(-c4ccncc4)ccn23)cc1)Nc1cccc(C(F)(F)F)c1 [LY2401401],pEC50,[1],8.04
Clc1ccc(Nc2nnc(Cc3ccncc3)c3ccccc23)cc1 [PTK787],pEC50,[1],6.85
same,outcome in clinical trials,[2],failed to achieve statistical significance
CCN(CC)CCNC(=O)c1c(C)[nH]c(/C=C2\C(=O)Nc3ccc(F)cc32)c1C [Sunitinib],effect on cord mass in length and area,[1]; 30 nM,significantly inhibited
same,"number of connected cords, branching nodes, and segment measurements",[1]; 30 nM,all significantly reduced
same,number of nuclei per tube,[1]; 30 nM,significantly reduced
same,effect on angiogenesis / cord formation,"[1]; 30 nM compound, compared to medium control",significantly inhibited angiogenesis; also recorded: drastically inhibited cord formation
same,pEC50,[1],7.41
VEGF,effect on angiogenesis / cord formation,[1]; 20 ng/ml VEGF added to culture,significantly increased angiogenesis; also recorded: greatly enhanced
